Data taken from patent US8592405B2, “Synergistic antimicrobial composition” (Dow Global Technologies LLC, priority 2009, dated 2013).

Legend:
Assay type in all cases: cell-based
[1] = test system: An + Pf (Aspergillus niger + Penicillium funiculosum); test: Fungal efficacy testing, modified ASTM 5590 (6-well, mixed inoculum, Example 4); conditions: four weeks; for Total conc, ppm: An + Pf mixed inoculum, NE = no end point at the concentration tested; for % inhibition: An + Pf, at the Total conc
Protocol: (§1) The SI is calculated based on F. C. Kull et.
(§2) A single or blend of biocides was post added into white acrylic latex paint free of biocides to give a maximum total active ingredient/s concentration tested. This paint was then diluted with a biocide free acrylic latex paint at concentrations range of 75 to 12.5% w/w to give desired concentrations for the testing. Depending on the type of biocide blends tested, the total biocides concentrations varies from 200 to 5000 ppm. After biocides addition or dilution each sample was hand mixed for at least a minute until uniformity is achieved. Each of the paint samples as well as a control sample (containing no biocide) were used to prepare films on black plastic-vinyl chloride/acetate copolymer panels (LENETA, Mahwah, N.J.) using a 3 mil bird bar applicator. The panels were thoroughly dried for at least 2 days avoiding direct exposure to sunlight. Square discs (0.5 inch^2, 13 mm^2) were cut out from each panel and were used as the substrate for fungal and algal efficacy tests. This sample size allowed for an agar border when the sample disc was placed into the well of the test plate. Each sample was tested in duplicate
(§3) The appropriate media (BOLD'S 3N for Chlorophytes, BG-11 for Cyanobacteria, and PDA for fungi) were used to support microbial growth. The test plates were maintained at room temp (25° C.-26° C.), in a cycled light-dark environment, for four weeks for algae. Plates for fungal challenge tests were maintained at 30 C for four weeks. At the end of the incubation period the samples were scored for percent area covered by visible microbial growth.
(§4) ASTM 5590 is a standard accelerated test method for determining resistance of various coatings (including paints) to fungal defacement. To accommodate for high-throughput screening, this method was scaled down from petri plates to 6-well plates. To set up the test, an agar plug was placed at the bottom of each well of the sterile 6-well plate. A single coupon was placed with a pair of sterile forceps at the center of the agar plug (on top) with the painted surface facing upwards. Fungal inoculums were prepared by mixing equal concentrations (1×10^6 cfu/ml) and equal volumes (depending on number of samples to be tested) of like growing organisms. Cladosporium herbarum was mixed with Aureobasidium pullulans. Aspergillus niger was mixed with Penicillium funiculosum. Alternaria alternata was mixed with Trichoderma viride. Each well was inoculated with 400 μl of organism mixture (1×10^6 cfu/ml) making sure that the whole surface (paint film as well as the agar surrounding it) was evenly covered. The plates were incubated at 30° C. in presence of moisture, for a period of four weeks. The total percent area covered was evaluated and recorded at the end of each week after the 2nd week and recorded in increments of 5%.

[2] = test system: Ch + Tv (Cladosporium herbarum + Trichoderma viride); test: as above; conditions: four weeks
Protocol: [The source words this procedure for another target and reports this target under the same test.] as §1, §2, §3, §4

Trichoderma viride (Tv) = test: Fungal efficacy testing, modified ASTM 5590 (12-well, dry paint film); conditions: three weeks; for % inhibition: at the Total conc; for Total conc, ppm: total biocide in paint taken as minimum inhibitory concentration, 30 C
Protocol: Samples of white acrylic latex paint free of biocides were prepared in 50 ml aliquots. Each biocide was post added to give the necessary active ingredient concentration in the paint. The total biocides concentrations tested were 750, 1500, 2500 and 5000 ppm. After biocides addition, each sample was hand mixed for a minimum of 30 sec, followed by a 3 min run on the paint shaker (RED DEVIL). Each of the paint samples as well as a control sample (containing no biocide) were used to prepare films on black plastic-vinyl chloride/acetate copolymer panels (LENETA, Mahwah, N.J.) using a 3 mil bird bar applicator. The panels were thoroughly dried for 5 days avoiding direct exposure to sunlight. Square discs (15 mm^2) were cut out from each panel and were used as the substrate for fungal and algal efficacy tests. This sample size allowed for an agar border when the sample disc was placed into the well of the test plate.
The appropriate media (BOLD'S 3N for Chlorophytes, BG-11 for Cyanobacteria, and PDA for fungi) were used to support microbial growth. The test plates were maintained at room temp (25° C.-26° C.), in a cycled light-dark environment, for 3 weeks for algae. Plates for fungal challenge tests were maintained at 30C for three weeks. At the end of incubation period the samples were scored for percent area covered by visible microbial growth.
as §4, with “12-well” for “6-well”, “upwards.” for “upwards. Fungal inoculums were prepared by mixing equal concentrations (1×10^6 cfu/ml) and equal volumes (depending on number of samples to be tested) of like growing organisms. Cladosporium herbarum was mixed with Aureobasidium pullulans. Aspergillus niger was mixed with Penicillium funiculosum. Alternaria alternata was mixed with Trichoderma viride.”, “150” for “400”, “organism” for “organism mixture”, “three” for “four”
as §1

SMILES	Total conc, ppm [1] [ppm]	% inhibition [1] [%]	Total conc, ppm ([2]; Ch + Tv mixed inoculum, NE = no end point at the concentration tested) [ppm]	% inhibition ([2]; Ch + Tv, at the Total conc) [%]	% inhibition (Trichoderma viride (Tv)) [%]	Total conc, ppm (Trichoderma viride (Tv)) [ppm]
CN(C)C(=O)Nc1cccc(C(F)(F)F)c1 [Fluometuron, 1,1-dimethyl-3-(α,α,α-trifluoro-m-tolyl)urea]	5000	0	5000	0		
CCCCCCCCn1sc(Cl)c(Cl)c1=O [DCOIT, 4,5-dichloro-2-n-octyl-4-isothiazolin-3-one]					60	2500
Cc1ccc(S(=O)(=O)C(I)I)cc1 [DIMTS, diiodomethyl-p-tolylsulfone]	1250	100			90	750
